From ChEMBL document CHEMBL1152906, “Synthesis and evaluation of carbamate prodrugs of SQ109 as antituberculosis agents” (Bioorg Med Chem Lett, 2009)
Values joined by “and” are separate entries in the source; they are usually repeats but may differ in a detail not shown here. Identical values can stand only once.

Tests used:
Rattus norvegicus [1] = assay: Oral bioavailability in rat assessed as N-Geranyl-N0-(2-adamantyl)ethane-1,2-diamine level at 13 mg/kg; assay type: ADME, organism-based; settings: in vivo
Rattus norvegicus [2] = assay: Half life in rat assessed as N-Geranyl-N0-(2-adamantyl)ethane-1,2-diamine level at 13 mg/kg, po; assay type: ADME, organism-based; design: dose 13 mg/kg, route oral; settings: in vivo
Lung [3] = assay: Drug uptake in rat lung assessed as N-Geranyl-N0-(2-adamantyl)ethane-1,2-diamine level at 13 mg/kg, po after 10 hrs; assay type: ADME, organism-based; design: dose 13 mg/kg, route oral; settings: in vivo
Rattus norvegicus [4] = assay: AUC(0 to 24 hrs) in rat assessed as N-Geranyl-N0-(2-adamantyl)ethane-1,2-diamine level at 13 mg/kg, po; assay type: ADME, organism-based, Plasma; design: time < 24 hr, dose 13 mg/kg, route oral; settings: in vivo
Lung [5] = assay: Drug uptake in rat lung assessed as N-Geranyl-N0-(2-adamantyl)ethane-1,2-diamine level at 13 mg/kg, po after 4 hrs; assay type: ADME, organism-based; design: dose 13 mg/kg, route oral; settings: in vivo
[6] = Ratio of drug level in rat lung to plasma assessed as N-Geranyl-N0-(2-adamantyl)ethane-1,2-diamine level at 13 mg/kg, po after 4 hrs; assay type: ADME, organism-based; design: dose 13 mg/kg, route oral; settings: other tissue
Rattus norvegicus [7] = assay: Cmax in rat assessed as N-Geranyl-N0-(2-adamantyl)ethane-1,2-diamine level at 13 mg/kg, po; assay type: ADME, organism-based; design: dose 13 mg/kg, route oral; settings: in vivo
Rattus norvegicus [8] = assay: Tmax in rat assessed as N-Geranyl-N0-(2-adamantyl)ethane-1,2-diamine level at 13 mg/kg, po; assay type: ADME, organism-based; design: dose 13 mg/kg, route oral; settings: in vivo
Rattus norvegicus [9] = assay: Clearance in rat assessed as N-Geranyl-N0-(2-adamantyl)ethane-1,2-diamine level at 13 mg/kg, po; assay type: ADME, organism-based; design: dose 13 mg/kg, route oral; settings: in vivo
[10] = Stability of compound in Sorensens buffer at pH 7.4; assay type: physicochemical
[11] = Half life in rat at 1.5 mg/kg, iv; assay type: ADME, organism-based; design: dose 1.5 mg/kg, route intravenous; settings: in vivo
[12] = Cmax in rat at 13 mg/kg, po; assay type: ADME, organism-based; design: dose 13 mg/kg, route oral; settings: in vivo
[13] = Cmax in rat at 1.5 mg/kg, iv; assay type: ADME, organism-based; design: dose 1.5 mg/kg, route intravenous; settings: in vivo
[14] = Half life in rat at 13 mg/kg, po; assay type: ADME, organism-based; design: dose 13 mg/kg, route oral; settings: in vivo
[15] = AUC(0 to 24 hrs) in rat at 1.5 mg/kg, iv; assay type: ADME, organism-based; design: time < 24 hr, dose 1.5 mg/kg, route intravenous; settings: plasma
[16] = Tmax in rat at 13 mg/kg, po; assay type: ADME, organism-based; design: dose 13 mg/kg, route oral; settings: in vivo
[17] = Clearance in rat at 1.5 mg/kg, iv; assay type: ADME, organism-based; design: dose 1.5 mg/kg, route intravenous; settings: in vivo
[18] = Oral bioavailability in rat; assay type: ADME, organism-based; settings: in vivo
[19] = Oral bioavailability in rat at 13 mg/kg; assay type: ADME, organism-based; settings: in vivo
[20] = Clearance in rat at 13 mg/kg, po; assay type: ADME, organism-based; design: dose 13 mg/kg, route oral; settings: in vivo
[21] = Oral bioavailability in dog; assay type: ADME, organism-based, Canis lupus familiaris; settings: in vivo
[22] = AUC(0 to 24 hrs) in rat at 13 mg/kg, po; assay type: ADME, organism-based; design: time < 24 hr, dose 13 mg/kg, route oral; settings: plasma

Compound `CC(C)=CCC/C(C)=C/CN(CCNC1C2CC3CC(C2)CC1C3)C(=O)OCOC(=O)C(C)C.O=C(O)/C=C\C(=O)O` (centres undefined) has an F (Rattus norvegicus [1]) of 91.4%, a t1/2 (Rattus norvegicus [2]) of 4.58 h and a Drug uptake (Lung [3]) of 29.03 µg/g. The AUC (Rattus norvegicus [4]) was 5441.2 ng·h/mL, the Drug uptake (Lung [5]) was 35.08 µg/g and the “fold change (FC)” value [6] was 76 and 60. It also gave a Cmax (Rattus norvegicus [7]) of 1309.3 ng/mL, a Tmax (Rattus norvegicus [8]) of 1 h and a CL (Rattus norvegicus [9]) of 41.5 mL/min/kg.
For `CC(C)=CCC/C(C)=C/CN(CCNC1C2CC3CC(C2)CC1C3)C(=O)OC(C)OC(=O)C(C)(C)C.O=C(O)/C=C\C(=O)O` (centres undefined), the Stability [10] was “Unstable”.
In the case of `CC(C)=CCC/C(C)=C/CN(CCNC1C2CC3CC(C2)CC1C3)C(=O)OC(C)OC(=O)C(C)C.O=C(O)/C=C\C(=O)O` (centres undefined), the Stability [10] is reported as “Unstable”.
`CC(C)=CCC/C(C)=C/CN(CCNC1C2CC3CC(C2)CC1C3)C(=O)OCOC(=O)C(C)(C)C.O=C(O)/C=C\C(=O)O` (centres undefined) showed an F (Rattus norvegicus [1]) of 72.6%, a t1/2 (Rattus norvegicus [2]) of 5.6 h and an AUC (Rattus norvegicus [4]) of 4224.8 ng·h/mL. The Cmax (Rattus norvegicus [7]) was 585.6 ng/mL, the Tmax (Rattus norvegicus [8]) was 1.4 h and the CL (Rattus norvegicus [9]) was 50 mL/min/kg.
`CC(C)=CCC/C(C)=C/CNCCNC1C2CC3CC(C2)CC1C3` (centres undefined) [SQ109] gave a half-life [11] of 5.06 h, a Cmax [12] of 499 ng/mL and a Cmax [13] of 889 ng/mL. For the same compound, the half-life [14] was 3.71 h, the AUC(0-t) at 24 h [15] was 1230 ng·h/mL and the Tmax [16] was 0.75 h. For the same compound, the clearance [17] was 17.5 mL/min/kg, the bioavailability [18] was 12% and the bioavailability [19] was 21.9%. For the same compound, the CL/F [20] was 82.3 mL/min/kg, the bioavailability [21] was 3.8% and the AUC(0-t) at 24 h [22] was 2330 ng·h/mL.
